These results are taken from patent EP1382341A1, “Use of compositions comprising glycyrrhetinic acid and benzoyl peroxide for acne treatment” (Cognis Iberia, S.L., priority 2002, dated 2004).

≈ marks a conversion by molar mass, not a printed value. Read-outs that look alike come from different tables or passages of the source.

What all share (assay type): cell-based
The test system of assay [1] is Propionibacterium acnes. Briefly: Agar diffusion method (inhibition zones). Conditions: diameter of inhibition zone; Wilkins-Chalgren agar with 5 wt% sheep blood; 20 µl test substance; 18 to 24 at 37 °C, anaerobic. From the text:
(§1) Die antibakterielle Wirksamkeit der Wirkstoffe und Wirkstoffinischungen wurde mit Hilfe der Diffusionsmethode auf Agar-Platten bzw. der Agar-Verdünnungsmethode untersucht. Dabei wird zunächst ein rundes Filterpapier definierten Durchmessers mit der Testlösung getränkt und dieses dann auf die Oberfläche einer Agarplatte aufgebracht, welche zuvor mit den Testmikroorganismen inokuliert worden war. Anschließend wird nach definierten Zeiten die Größe der Inhibierungszonen bestimmt. Diese Technik erlaubt es insbesondere die MIC (Minimum Inhibitory Concentration) als die niedrigste Testsubstanzkonzentration zu bestimmen, mit der noch eine vollständige Inhibierung der Mikroorganismen erzielt werden kann.
(§2) Agar-Diffusionsmethode. Das Inokulum wurde unter Verwendung einer frischen Kultur in einer stationären Wachstumsphase (nach ca. 18-24 h) in einer BHI-Lösung (Brain-Heart-InfüsionI) hergestellt. Die Bakteriensuspension wurde auf 0,5 MacFarland-Einheiten eingestellt, entsprechend 1,5 10^8 Kolonienbildende Einheiten (cfu)/ml; anschließend wurde die Suspension mit einer Kochsalzlösung 1/100 verdünnt, um einen Wert von 1,5 10^6 cfu/ml einzustellen. Anschließend wurde Mueller-Hinton Agar (Staphylococcus epidermis, Staphylococcus aureus) und Wilkins-Chalgrens Agar mit 5 Gew.-% Schafsblut (Propionobakterium acnes) 15 min bei 121 °C sterilisiert und dann in Petrischalen gegeben. Die Petrischalen wurden mit 2 bis 4 ml der Bakteriensuspensionen versetzt und bei Raumtemperatur getrocknet. Die Filterpapiere wurden mit 20 µl der Testsubstanzen getränkt und auf die Oberfläche der Agarplatten aufgebracht. Die inokulierten Petrischalen wurden 18 bis 24 bei 37 °C inkubiert (die Petrischalen mit Propionibacterium acnes unter anaeroben Bedingungen) und die antimikrobielle Wirksamkeit anschließend durch Bestimmung der Wachstumsinhibierungszone ermittelt. Die Ergebnisse sind in Tabelle 1 zusammengefasst. Angegeben sind ist jeweils der Durchmesser der Inhibierungsflächen in mm.
Background: Agar diffusion results depend on both activity and mobility in agar.

In assay [2] the test system is Staphylococcus aureus. The experiment in a line: Agar diffusion method (inhibition zones). Conditions: diameter of inhibition zone; Mueller-Hinton agar; filter paper with 20 µl test substance; 18 to 24 at 37 °C.
Source text: as §1, §2

The subject of assay [3] is Staphylococcus epidermidis. The experiment in a line: Agar diffusion method (inhibition zones). Conditions: diameter of inhibition zone; Mueller-Hinton agar; filter paper with 20 µl test substance; 18 to 24 at 37 °C.
Source text: as §1, §2

In assay [4] the test system is Propionibacterium acnes. The experiment in a line: Agar dilution method (MIC determination). Conditions: lowest concentration with complete inhibition of growth, 37 °C, 18 to 24 h, mean of duplicate determinations.
Source text: as §1
(§3) Agar Verdünnungsmethode (MIC-Bestimmung). Wie oben beschrieben wurden verschiedene Agars vorbereitet, mit unterschiedlichen Konzentrationen an Testsubstanzen versetzt, homogenisiert und dann getrocknet. Anschließend erfolgte die Inokulation der Petrischalen mit jeweils 2 µl der Bakteriensuspensionen. […] Es handelt sich jeweils um den Mittelwert von Doppelbestimmungen.

The test system of assay [5] is Staphylococcus aureus. Briefly: Agar dilution method (MIC determination). Conditions: lowest concentration with complete inhibition of growth, 37 °C, 18 to 24 h, mean of duplicate determinations.
Source text: as §1, §3
(In agar dilution, organisms are placed on agar that contains the substance at set levels.)

Assay [6] concerns Staphylococcus epidermidis. The experiment in a line: Agar dilution method (MIC determination). The conditions noted are these: lowest concentration with complete inhibition of growth, 37 °C, 18 to 24 h, mean of duplicate determinations.
Source text: as §1, §3

With Glyzyrrhetinsäure-Zinksalz [B1], the Inhibierungszonen with Propionibacterium acnes [1] stood at 4 mm; in the assay with Staphylococcus aureus [2], 5 mm; in assay [3] it was 5 mm. The MIC in the assay with Propionibacterium acnes [4] is 1,25 mg/ml; against Staphylococcus aureus [5] it was over 10000 µg/mL; in assay [6], 1,25 mg/ml.

`O=C(OOC(=O)c1ccccc1)c1ccccc1` [A1, Benzoylperoxid]: the Inhibierungszonen in the assay on Propionibacterium acnes [1] amounted to 7 mm; in the assay on Staphylococcus aureus [2], 5 mm; in assay [3] it was 5 mm. For the same compound, the minimum inhibitory concentration (MIC) in the assay on Propionibacterium acnes [4] (Cutibacterium acnes, read-out: MIC) is 1250 µg/mL (≈ 5.16 mM); in the assay on Staphylococcus aureus [5] (Staphylococcus aureus, read-out: MIC), over 10000 µg/mL; in assay [6] (Staphylococcus epidermidis, read-out: MIC), 1250 µg/mL (≈ 5.16 mM).

As a reminder, the MIC is the smallest concentration in the dilution series that meets the test's criterion for growth inhibition.
